The record followed here is patent US5006534A, “Substituted ethers, thioethers and amines for use as lipoxygenase inhibitors” (Bayer Aktiengesellschaft, priority 1985, dated 1991).

Test [1] concerns mouse ear inflammation. Nature of the test: mouse ear inflammation model. In kind it is in vivo.
Test [2] deals with lipoxygenase. Put plainly: LTB4 release on polymorphonuclear rat leucocytes (PMN) by RP-HPLC after Ca ionophor, as a measure of lipoxygenase inhibition. The class given is cell-based. The method, then:
The release of leukotriene B4 (LTB4) was determined on polymorphonuclear rat leucocytes (PMN) by means of reverse phase high performance liquid chromatography, after addition of substances and Ca ionophor, in accordance with the method of Borgeat, P. et al., Proc. Nat. Acad. Sci., 76, 2148-2152 (1979) as a measure of the lipoxygenase inhibition.

The structures appear in SMILES notation.

In the case of `CCCCCCC(OC(C)=O)c1cccc(COc2cccc3cccnc23)c1` (centres unmarked) [Example 39, 1-[3-(Quinolin-8-yloxymethyl)phenyl]heptyl acetate], the “Inhibition of inflammation at 2 mg/ear” value in test [1] was 72.0%. Besides, the “LO inhibition IC50 values” in test [2] stood at 260 ng/mL.

With `CCCCC(O)c1cccc(COc2cccc3cccnc23)c1` (centres unmarked) [Example 55, 1-[3-(Quinolin-8-yloxymethyl)phenyl]pentanol], in test [1], the “Inhibition of inflammation at 2 mg/ear” value turned out to be 70.0%. The “LO inhibition IC50 values” in test [2] amounted to 83 ng/mL.

As for `CCCCCCC(O)c1cccc(COc2cccc3cccnc23)c1` (centres unmarked) [Example 57, 1-[3-(Quinolin-8-yloxymethyl)phenyl]heptanol], the “Inhibition of inflammation at 2 mg/ear” value in test [1] is given as 86.1%. Besides, the “LO inhibition IC50 values” in test [2] was 230 ng/mL.

For the compound `CCCCCC(OC(C)=O)c1cccc(COc2cccc3cccnc23)c1` (centres unmarked) [Example 38, 1-[3-(Quinolin-8-yloxymethyl)phenyl]hexyl acetate], the “Inhibition of inflammation at 2 mg/ear” value in test [1] was found to be 75.0%. For the same compound, the “LO inhibition IC50 values” in test [2] turned out to be 140 ng/mL.
